In patent publication US20100292231A1, “Indazole Compounds for Treating Inflammatory Disorders, Demyelinating Disorders and Cancers” (priority 2007, published 2010):
Where a chain is given by its changes, count along the chain named.

Assays:
Format in all cases: cell-based
[1] = target: T1, BaF3-D835Y (Homo sapiens, UniProt P36888, D835Y, cells depend on it); assay: MTS cellular proliferation assay; conditions: 72 hour incubation, read-out: Growth inhibitory activity (in vivo EC50 nM)
T1 sequence (P36888 1-993 D835Y): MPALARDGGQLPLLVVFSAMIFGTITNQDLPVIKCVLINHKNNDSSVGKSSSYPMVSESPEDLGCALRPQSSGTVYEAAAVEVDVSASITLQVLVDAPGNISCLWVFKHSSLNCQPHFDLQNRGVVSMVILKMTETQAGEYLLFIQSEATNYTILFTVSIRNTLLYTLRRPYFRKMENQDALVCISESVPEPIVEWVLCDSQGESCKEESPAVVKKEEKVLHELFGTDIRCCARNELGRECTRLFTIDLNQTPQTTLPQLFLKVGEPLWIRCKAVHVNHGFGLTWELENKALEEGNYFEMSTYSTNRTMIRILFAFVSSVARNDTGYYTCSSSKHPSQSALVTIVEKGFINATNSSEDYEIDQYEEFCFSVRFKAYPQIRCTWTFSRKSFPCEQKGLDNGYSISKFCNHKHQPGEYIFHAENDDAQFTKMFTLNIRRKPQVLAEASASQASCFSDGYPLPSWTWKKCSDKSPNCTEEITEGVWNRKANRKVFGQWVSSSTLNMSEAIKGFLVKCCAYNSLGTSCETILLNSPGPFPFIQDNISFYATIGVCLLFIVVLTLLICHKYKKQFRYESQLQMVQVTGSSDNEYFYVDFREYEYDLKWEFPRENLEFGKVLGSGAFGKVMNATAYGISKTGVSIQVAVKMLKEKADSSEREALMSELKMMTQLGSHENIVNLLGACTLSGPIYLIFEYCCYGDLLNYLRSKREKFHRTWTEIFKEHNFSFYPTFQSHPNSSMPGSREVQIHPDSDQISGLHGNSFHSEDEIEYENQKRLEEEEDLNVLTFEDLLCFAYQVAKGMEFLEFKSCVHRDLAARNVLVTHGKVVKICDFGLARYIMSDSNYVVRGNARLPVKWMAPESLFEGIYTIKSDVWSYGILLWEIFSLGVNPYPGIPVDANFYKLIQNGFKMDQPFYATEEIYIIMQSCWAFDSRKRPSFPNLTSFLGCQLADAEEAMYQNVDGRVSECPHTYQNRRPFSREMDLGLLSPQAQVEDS
Source text: (§1) The viability of Flt3 expressing cells can be evaluated using a tetrazolium salt reduction cell-based assay. […] BaF3, both wild type and mutant, as well as transfected strains, MV4-11 and MOLM14 are well-characterized Flt3-dependent humanized or human cell lines which express active Flt3 receptors (see, Yee et al. Blood (2002)100 (8):2941-2949; Levis et al. (2002) 99(11): 3885-3891). These cell lines were used to determine the ability of the compounds provided herein to inhibit Flt3 in intact cells. In each case, and by methods known to those practiced in the art of cell culture, proliferation was measured after 72 hour incubation with the compounds provided herein using a standard MTS protocol (Promega Cat #5430 “Cell Titer 96 Aqueous Non-radioactive Cell Proliferation Assay”).
(§2) In general, cells were plated at 10,000-20,000 cells per well in DMEM medium with 0.5% serum. The compound plate was set up by aliquoting into column 1 of a 96 well 300 ul polypropylene plate, the negative control (DMSO), aliquoting into column 12 the positive control and titrating the test compound in serial dilutions into columns 2-1 l. An aliquot from each well of the compound plate was transferred to the plated cells and then incubated @ […] in 5% CO2. [00538] MTS tetrazolium compound (Owen's reagent) was thawed in a H2O bath. 20 μl of MTS tetrazolium was added to each well of optical plate and the cells were incubated @ 37° C. in 5% CO2 for 2 hours. The absorbance measured at 490 nm using a microplate reader.

[2] = tested on: BaF3-FLT3-WT + IL-3; assay: MTS cellular proliferation assay; conditions: 72 hour incubation, read-out: Growth inhibitory activity (in vivo EC50 nM)
Source text: as §1, §2

[3] = target: T2, BaF3-ITD (Homo sapiens, UniProt P36888, cells depend on it, form not given); assay: MTS cellular proliferation assay; conditions: 72 hour incubation, read-out: Growth inhibitory activity (in vivo EC50 nM)
T2 sequence (P36888 1-993): T1 sequence (P36888 1-993 D835Y) with Y835D
Source text: as §1, §2

[4] = tested on: MOLM14; assay: MTS cellular proliferation assay; conditions: Homo sapiens, MOLM-14, 72 hour incubation, read-out: Growth inhibitory activity (in vivo EC50 nM)
Source text: as §1, §2

[5] = tested on: Raw264.7 (murine macrophage-like cells); assay: sulforhodamine B (SRB) cytotoxicity assay; conditions: Mus musculus, RAW264.7, 144 h; 25 μM highest concentration, diluted 1:5; 6 days; read-out: IC50 Measured Against Raw264.7 Cell Line

| Compound | EC50 [1] [nM] | IC50 [2] [nM] | EC50 [3] [nM] | EC50 [4] [nM] | IC50 [5] [nM] |
| --- | --- | --- | --- | --- | --- |
| CN(C)CCCCCNc1ccc2ncn3c4ccc5[nH]ncc5c4c(=O)c1c23 [(III)] | 887 | 752 | 223 | – | – |
| CN(C)c1ccc2ncn3c4ccc5[nH]ncc5c4c(=O)c1c23 [(IX)] | 723 | > 2000 | 80 | 82 | – |
| CCN(CC)c1ccc2ncn3c4ccc5[nH]ncc5c4c(=O)c1c23 [(VI)] | 171 | 1390 | 74 | 84 | – |
| CNc1ccc2ncn3c4ccc5[nH]ncc5c4c(=O)c1c23 [(VII)] | 158 | 356 | 36 | 60 | – |
| CCN(CC)CCNc1ccc2ncn3c4ccc5[nH]ncc5c4c(=O)c1c23 [(VIII)] | 129 | 341 | 30 | 627 | – |
| O=c1c2c(NCCCN3CCOCC3)ccc3ncn(c4ccc5[nH]ncc5c14)c32 [(X)] | 79 | 492 | 35 | 90 | 2.7 |
| CC(CCN1CCOCC1)Nc1ccc2ncn3c4ccc5[nH]ncc5c4c(=O)c1c23 (stereo not drawn) [(XVI)] | – | – | – | – | 25.7 |
| CN1CCN(CCCNc2ccc3ncn4c5ccc6[nH]ncc6c5c(=O)c2c34)CC1 [(XVII)] | – | – | – | – | 2.6 |
| CN(C)CCCNc1ccc2ncn3c4ccc5[nH]ncc5c4c(=O)c1c23 [Compound (IV)] | 13 | 6 | 20 | – | – |
| O=c1c2c(NCCN3CCOCC3)ccc3ncn(c4ccc5[nH]ncc5c14)c32 [Compound (V)] | 172 | 246 | 90 | 333 | – |
| CCN(CC)CCNc1ccc2ncn3c4ccc(O)cc4c(=O)c1c23 [Symadex, 5-(2-(diethylamino)ethylamino)-8-hydroxy-6H-imidazo[4,5,1-de]acridin-6-one, reference compound] | 8.9 | 13.2 | 11.2 | – | – |
